In ChEMBL document CHEMBL1201862, “PubChem BioAssay data set” (2004):
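Following 48 hours of exposure in 96-well plates, responses at five concentrations were used to interpolate endpoints linearly. GI50 is the concentration that inhibits growth by half.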 The source made the active and inactive calls. Rule as the data show it: active = GI50 up to about 1.1 µM and inactive = higher.

Experiments:
Test in all cases: NCI tumour cell line growth inhibition, 48 h
[1] = system: HOP-62
[2] = system: CAKI-1
[3] = system: SK-MEL-5
[4] = system: COLO 205
[5] = system: MDA-N
[6] = system: HCT-116
[7] = system: NCI/ADR-RES
[8] = system: Hs-578T
[9] = system: SK-OV-3
[10] = system: SF-268
[11] = system: SNB-19
[12] = system: Malme-3M
[13] = system: NCI-H226
[14] = system: HOP-92
[15] = system: SK-MEL-28
[16] = system: 786-0
[17] = system: A549
[18] = system: M14
[19] = system: SW-620
[20] = system: SNB-75

Measured: GI50

COc1cc(/C=C2/SC(c3ccccc3)N(c3ccc(NC(C)=O)cc3)C2=O)cc(OC)c1OC (stereo not drawn)
inactive: [1] > 100 µM | [2] > 100 µM | [3] 34.4 µM | [4] > 100 µM | [5] 82.6 µM | [6] > 100 µM | [7] > 100 µM | [8] 35.5 µM | [9] > 100 µM | [10] 75.2 µM | [11] > 100 µM | [12] 54.1 µM | [13] > 100 µM | [14] 37.3 µM | [15] > 100 µM | [16] > 100 µM | [17] > 100 µM | [18] > 100 µM | [19] > 100 µM

O=C(O)CSC1=NCCN1
inactive: [1] > 100 µM | [2] > 100 µM | [20] > 100 µM | [3] > 100 µM | [4] > 100 µM | [5] > 100 µM | [6] > 100 µM | [7] > 100 µM | [8] > 100 µM | [9] > 100 µM | [10] > 100 µM | [11] > 100 µM | [12] > 100 µM | [14] > 100 µM | [15] > 100 µM | [16] > 100 µM | [17] > 100 µM | [18] > 100 µM | [19] > 100 µM

C=CCN(C(=O)OC(C)(C)C)[C@H](C)C(=O)N[C@@H](C)C(=O)OC
inactive: [1] > 100 µM | [2] > 100 µM | [3] > 100 µM | [4] > 100 µM | [5] > 100 µM | [6] > 100 µM | [7] > 100 µM | [8] > 100 µM | [9] > 100 µM | [10] > 100 µM | [11] > 100 µM | [12] > 100 µM | [13] > 100 µM | [14] > 100 µM | [15] > 100 µM | [16] > 100 µM | [17] > 100 µM | [18] > 100 µM | [19] > 100 µM

CCOC(=O)NNC(=O)NCc1ccccc1CNC(=O)NNC(=O)OCC
inactive: [2] > 100 µM | [20] > 100 µM | [3] > 100 µM | [4] > 100 µM | [5] > 100 µM | [6] > 100 µM | [7] > 100 µM | [8] > 100 µM | [9] > 100 µM | [10] > 100 µM | [11] > 100 µM | [12] > 100 µM | [13] > 100 µM | [15] > 100 µM | [16] > 100 µM | [17] > 100 µM | [18] > 100 µM | [19] > 100 µM

O=C1/C(=C/c2cccc(Oc3ccccc3)c2)N=C(c2ccccc2)N1c1nc2ccc(Sc3ccccc3)cc2[nH]1
inactive: [1] 28.4 µM | [2] 36.2 µM | [20] 18.2 µM | [3] 24.4 µM | [4] 16.9 µM | [5] 16 µM | [6] 30.2 µM | [7] 20.5 µM | [8] 41.3 µM | [9] 25.6 µM | [10] 37.7 µM | [11] 35.5 µM | [12] 67.8 µM | [14] 58.7 µM | [15] 41.3 µM | [16] 32.3 µM | [17] 42.1 µM | [18] 24.3 µM | [19] 29.4 µM

CCOC(=O)Cc1cc(=O)oc2cc(O)ccc12
inactive: [2] > 100 µM | [20] > 100 µM | [3] > 100 µM | [4] > 100 µM | [5] > 100 µM | [6] > 100 µM | [7] > 100 µM | [8] > 100 µM | [9] > 100 µM | [10] > 100 µM | [11] > 100 µM | [12] > 100 µM | [13] > 100 µM | [15] > 100 µM | [16] > 100 µM | [17] > 100 µM | [18] > 100 µM | [19] > 100 µM

C(=N\c1ccc(-c2nc3ccccc3[nH]2)cc1)/c1ccc[nH]1
inactive: [1] 3.94 µM | [2] > 100 µM | [20] > 100 µM | [3] 30.3 µM | [4] 41.3 µM | [5] 34.2 µM | [6] 50.9 µM | [7] > 100 µM | [8] 4.3 µM | [10] 30.3 µM | [12] > 100 µM | [14] > 100 µM | [15] > 100 µM | [16] 83.4 µM | [17] > 100 µM | [18] > 100 µM | [19] 73.3 µM

CC(N)(Cc1c[nH]c2ccccc12)C(=O)O (stereo not drawn)
inactive: [1] > 100 µM | [2] > 100 µM | [20] > 100 µM | [3] > 100 µM | [4] > 100 µM | [5] > 100 µM | [6] > 100 µM | [7] > 100 µM | [8] > 100 µM | [9] > 100 µM | [10] > 100 µM | [11] > 100 µM | [12] > 100 µM | [13] > 100 µM | [15] > 100 µM | [16] > 100 µM | [17] > 100 µM | [18] > 100 µM | [19] > 100 µM
